target: DNA-PKcs (Homo sapiens, UniProt P78527); assay: DNA-PK assay, Scintillation Proximity Assay (SPA) format; type: biochemical; details: room temperature, 0.23 nM DNA-PKcs, 0.3 μM ATP, 1% DMSO
Experimental: The assay for DNA-PK was optimized to be performed in 96-well plates using a Scintillation Proximity Assay (SPA) format at room temperature. […] When inhibitors were included, they were diluted to 5× the desired concentration in 5% DMSO and diluted 1:5 in the reaction mixture bringing the final DMSO concentration to 1%. […] Activating DNA-DNA fragment consisting of 32 complementary base pairs with 5 non-complementary T's on both ends of the two strands Sequence-[NT], and of the complementary strand-[NT]. […] Peptide substrate-biotin-[…]. Dissolved in DMSO at a concentration of 5 mg/ml for the stock solution. Alternatively, fragments of the peptide substrate can be used, such as, without limitation, […]. The kinase reaction was stopped by adding […] of a solution containing 50 μM ATP, 5 mM EDTA, 0.1% Triton X-100, and 0.5 mg of streptavidin coated polyvinyltoluene SPA beads (Amersham). After a 10 min. incubation and a short spin (to pellet the beads), the plates were read on a Trilux plate reader.

Sequence of DNA-PKcs (P78527 whole entry, the tested form may be a part): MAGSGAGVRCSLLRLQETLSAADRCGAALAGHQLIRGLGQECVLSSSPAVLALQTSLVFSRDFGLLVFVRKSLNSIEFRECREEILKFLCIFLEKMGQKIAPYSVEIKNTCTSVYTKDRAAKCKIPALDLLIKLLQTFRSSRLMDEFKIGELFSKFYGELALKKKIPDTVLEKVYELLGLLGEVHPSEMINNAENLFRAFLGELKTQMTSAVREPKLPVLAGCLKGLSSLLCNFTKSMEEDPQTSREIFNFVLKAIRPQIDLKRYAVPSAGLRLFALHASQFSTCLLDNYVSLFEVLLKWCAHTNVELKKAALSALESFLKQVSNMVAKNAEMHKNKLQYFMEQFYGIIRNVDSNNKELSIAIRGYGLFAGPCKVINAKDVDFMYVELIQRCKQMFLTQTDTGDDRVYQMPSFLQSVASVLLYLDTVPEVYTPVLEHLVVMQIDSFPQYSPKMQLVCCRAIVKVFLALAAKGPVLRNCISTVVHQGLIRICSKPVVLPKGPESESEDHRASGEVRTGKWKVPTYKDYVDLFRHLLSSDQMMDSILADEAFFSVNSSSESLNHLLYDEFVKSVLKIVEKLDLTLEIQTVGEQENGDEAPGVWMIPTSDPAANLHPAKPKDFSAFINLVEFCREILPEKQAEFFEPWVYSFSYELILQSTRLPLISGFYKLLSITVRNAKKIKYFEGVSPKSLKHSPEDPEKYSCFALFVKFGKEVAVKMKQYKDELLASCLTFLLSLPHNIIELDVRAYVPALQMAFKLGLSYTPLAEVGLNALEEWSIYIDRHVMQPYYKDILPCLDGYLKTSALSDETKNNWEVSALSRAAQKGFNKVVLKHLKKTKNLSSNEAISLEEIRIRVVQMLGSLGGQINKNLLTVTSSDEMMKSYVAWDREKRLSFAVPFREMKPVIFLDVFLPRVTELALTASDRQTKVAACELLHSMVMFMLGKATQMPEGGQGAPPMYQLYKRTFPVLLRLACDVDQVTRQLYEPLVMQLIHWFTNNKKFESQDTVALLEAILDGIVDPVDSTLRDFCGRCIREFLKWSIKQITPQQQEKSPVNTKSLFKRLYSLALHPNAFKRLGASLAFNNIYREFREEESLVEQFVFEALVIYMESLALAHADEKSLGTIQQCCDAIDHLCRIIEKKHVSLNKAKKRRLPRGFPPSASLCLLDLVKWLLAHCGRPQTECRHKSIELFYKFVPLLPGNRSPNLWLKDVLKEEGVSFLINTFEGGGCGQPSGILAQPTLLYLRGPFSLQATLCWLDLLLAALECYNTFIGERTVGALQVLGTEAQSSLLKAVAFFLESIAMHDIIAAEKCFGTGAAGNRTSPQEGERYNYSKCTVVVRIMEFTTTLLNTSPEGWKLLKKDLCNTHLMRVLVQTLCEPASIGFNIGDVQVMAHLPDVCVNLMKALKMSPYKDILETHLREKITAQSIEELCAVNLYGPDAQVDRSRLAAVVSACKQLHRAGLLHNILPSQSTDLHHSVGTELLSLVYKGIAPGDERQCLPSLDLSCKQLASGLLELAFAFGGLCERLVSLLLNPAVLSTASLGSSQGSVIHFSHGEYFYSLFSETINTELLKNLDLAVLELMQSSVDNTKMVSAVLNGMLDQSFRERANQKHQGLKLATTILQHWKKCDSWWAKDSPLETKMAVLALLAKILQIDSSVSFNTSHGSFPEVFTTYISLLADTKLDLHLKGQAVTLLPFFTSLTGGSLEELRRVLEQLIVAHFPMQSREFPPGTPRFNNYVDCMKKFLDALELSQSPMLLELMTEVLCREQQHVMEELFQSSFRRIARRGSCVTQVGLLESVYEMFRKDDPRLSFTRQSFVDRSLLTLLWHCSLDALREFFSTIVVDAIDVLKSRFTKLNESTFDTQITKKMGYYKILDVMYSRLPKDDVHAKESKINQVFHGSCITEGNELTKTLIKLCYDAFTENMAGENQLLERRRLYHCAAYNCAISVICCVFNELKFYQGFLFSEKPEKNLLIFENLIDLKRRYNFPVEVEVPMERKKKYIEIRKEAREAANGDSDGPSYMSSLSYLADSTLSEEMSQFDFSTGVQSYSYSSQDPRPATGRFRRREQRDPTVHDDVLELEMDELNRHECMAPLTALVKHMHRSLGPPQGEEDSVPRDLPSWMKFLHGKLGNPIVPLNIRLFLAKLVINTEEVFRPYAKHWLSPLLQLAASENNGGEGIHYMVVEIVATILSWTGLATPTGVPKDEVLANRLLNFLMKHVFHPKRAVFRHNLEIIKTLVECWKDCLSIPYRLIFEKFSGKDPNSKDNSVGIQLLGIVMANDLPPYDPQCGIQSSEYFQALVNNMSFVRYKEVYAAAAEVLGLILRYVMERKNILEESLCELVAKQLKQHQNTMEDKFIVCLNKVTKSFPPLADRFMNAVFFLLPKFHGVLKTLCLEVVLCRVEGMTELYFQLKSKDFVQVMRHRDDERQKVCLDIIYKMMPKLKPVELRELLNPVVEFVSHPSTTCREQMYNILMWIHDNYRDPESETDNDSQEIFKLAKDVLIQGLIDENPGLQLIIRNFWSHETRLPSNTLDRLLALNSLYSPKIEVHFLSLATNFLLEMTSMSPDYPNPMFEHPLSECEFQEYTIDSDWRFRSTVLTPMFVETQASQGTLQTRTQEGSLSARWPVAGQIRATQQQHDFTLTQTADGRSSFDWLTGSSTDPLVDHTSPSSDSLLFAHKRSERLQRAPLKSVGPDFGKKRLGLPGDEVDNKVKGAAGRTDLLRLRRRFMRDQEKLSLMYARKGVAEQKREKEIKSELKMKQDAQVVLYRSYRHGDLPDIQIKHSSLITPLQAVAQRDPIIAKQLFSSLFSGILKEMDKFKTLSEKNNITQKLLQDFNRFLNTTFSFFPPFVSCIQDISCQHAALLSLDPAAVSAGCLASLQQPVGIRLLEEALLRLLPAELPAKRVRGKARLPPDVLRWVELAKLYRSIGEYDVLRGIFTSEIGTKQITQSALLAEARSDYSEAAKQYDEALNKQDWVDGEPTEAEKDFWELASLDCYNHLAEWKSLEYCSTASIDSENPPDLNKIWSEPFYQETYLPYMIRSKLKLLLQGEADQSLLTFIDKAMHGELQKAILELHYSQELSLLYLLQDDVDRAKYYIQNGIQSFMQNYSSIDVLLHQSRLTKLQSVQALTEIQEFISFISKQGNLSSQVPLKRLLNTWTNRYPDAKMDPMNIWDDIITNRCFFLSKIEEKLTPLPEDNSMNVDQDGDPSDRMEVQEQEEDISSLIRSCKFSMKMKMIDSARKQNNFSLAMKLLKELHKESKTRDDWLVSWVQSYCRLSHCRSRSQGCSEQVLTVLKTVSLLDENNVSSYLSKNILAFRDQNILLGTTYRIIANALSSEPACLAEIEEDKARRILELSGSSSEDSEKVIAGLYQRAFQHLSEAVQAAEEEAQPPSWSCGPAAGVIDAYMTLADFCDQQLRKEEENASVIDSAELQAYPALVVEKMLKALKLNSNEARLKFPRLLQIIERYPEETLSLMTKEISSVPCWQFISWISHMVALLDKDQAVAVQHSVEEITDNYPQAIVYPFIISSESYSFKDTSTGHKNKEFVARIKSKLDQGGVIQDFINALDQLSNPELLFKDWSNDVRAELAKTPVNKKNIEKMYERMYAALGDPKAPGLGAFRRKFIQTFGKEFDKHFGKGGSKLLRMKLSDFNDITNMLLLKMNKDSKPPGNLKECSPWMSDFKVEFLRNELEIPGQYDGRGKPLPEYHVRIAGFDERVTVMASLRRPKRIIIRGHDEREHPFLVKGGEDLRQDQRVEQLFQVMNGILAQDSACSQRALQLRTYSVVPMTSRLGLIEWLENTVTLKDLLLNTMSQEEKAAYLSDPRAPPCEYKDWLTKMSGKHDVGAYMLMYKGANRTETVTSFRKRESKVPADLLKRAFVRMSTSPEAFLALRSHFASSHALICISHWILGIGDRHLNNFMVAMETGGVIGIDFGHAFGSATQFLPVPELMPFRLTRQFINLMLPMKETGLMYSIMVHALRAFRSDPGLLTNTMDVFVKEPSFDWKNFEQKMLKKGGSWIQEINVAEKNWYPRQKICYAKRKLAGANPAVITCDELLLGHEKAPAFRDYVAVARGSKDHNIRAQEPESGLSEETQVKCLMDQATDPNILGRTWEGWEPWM

| Compound | IC50 |
| --- | --- |
| 2-oxo-3-[5-(2-pyrrolidin-1-yl-ethoxy-1H-indol-2-ylmethylene]-2,3-dihydro-1H-indole-sulfonic acid amide | 1.7 µM |
| CNS(=O)(=O)c1ccc2c(c1)C(=Cc1[nH]c3c(c1CCCN(C)C)CCCC3)C(=O)N2 [3-{3-(3-dimethylamino-propyl)-4,5,6,7-tetrahydro-1H-indol-2-ylmethylene]-2-oxo-2,3-dihydro-1H-indole-5-sulfonic acid methylamide] | 66 µM |
| Cc1c(CCC(=O)O)c[nH]c1/C=C1\C(=O)Nc2ccc(I)cc21 [3-{5-[(Z)-(5-iodo-2-oxo-1,2-dihydro-3H-indol-3-ylidene)methyl]-4-methyl-1H-pyrrol-3-yl}propanoic acid] | 1.5 µM |
| CCN(CC)CCNC(=O)c1c(C)[nH]c(C=C2C(=O)Nc3ccc(Br)cc32)c1C [5-(5-bromo-2-oxo-1,2-dihydro-indol-3-ylidenemethyl)-2,4-dimethyl-1H-pyrrole-3-carboxylic acid-(2-diethylamino-ethyl)-amide] | 34 µM |
| CCc1[nH]c(/C=C2\C(=O)Nc3ccc(S(=O)(=O)Nc4ccccc4)cc32)c(CC)c1CCC(=O)O [Example 83, 3-[2,4-Diethyl-5-(2-oxo-5-phenylsulfamoyl-1,2-dihydro-indol-3-ylidenemethyl)-1H-pyrrol-3-yl]-propionic acid] | 1.6 µM |

tested on: not listed separately; assay: Storage stability of stock solution; type: physicochemical; details: 2 mM in DMSO, stored at −70° C., after 12 months
Experimental: 3-[2,4-Diethyl-5-(2-oxo-5-phenylsulfamoyl-1,2-dihydro-indol-3-ylidenemethyl)-1H-pyrrol-3-yl]-propionic acid was dissolved in DMSO at 20 mg/ml and stored at −70° C. Calicheamicin μl was a generous gift from George Ellestad (Wyeth-Ayers Research). The drug was dissolved at 2 mM in DMSO (Sigma) and stored at −70° C. […] Wortmannin (Sigma) was dissolved at 1 mg/ml in DMSO and stored at −70° C. Recombinant p110 was purchased from Alexis and stored at −70° C. The glioblastoma cell line Mo59K and primary human fibroblasts was grown in Dulbecos MEM with glutamax (Invitrogen) supplemented with 10% Fetal calf serum, streptomycin and penicillin at 37° C. in a humidified cell incubator with 5% CO2. FACS analysis of cell cycle distribution after propiumiodide staining was done using standard protocols. Monolayers were irradiated on ice using a Philips RT 100 X-ray machine. An acceleration voltage of 70 kV was used.

| Compound | loss of activity on storage |
| --- | --- |
| calicheamicin μl | no loss of activity |
